Laboratory results published in patent publication US20050209157A1, “Short bioactive peptides and methods for their use” (priority 2001, published 2005).
Read-outs that look alike come from different tables or passages of the source. No end group written: not given here.

Experiments:
[1] = tested on: Pseudomonas aeruginosa ATCC 9027; experiment: Antimicrobial assay I, MIC by OD measurement; assay type: cell-based; conditions: 37° C. for 24 hours, absorbance 620 nm
[2] = tested on: Staphylococcus aureus ATCC 6538; experiment: Antimicrobial assay I, MIC by OD measurement; assay type: cell-based; conditions: 37° C. for 24 hours, absorbance 620 nm
[3] = tested on: yeast (Saccharomyces cerevisiae); experiment: Antimicrobial assay I, yeast assay in RPMI 1640; assay type: cell-based; conditions: RPMI 1640 media
S. aureus (MRSA) = assay type: cell-based, Staphylococcus aureus; conditions: mean of three; 16 to 20 hours at 35° C.
S. epidermidis C621 = assay type: cell-based, Staphylococcus epidermidis; conditions: mean of three; 16 to 20 hours at 35° C.
S. pyogenes M76 = experiment: Antimicrobial assays II, NCCLS broth microdilution MIC; assay type: cell-based, Streptococcus pyogenes; conditions: mean of three; 16 to 20 hours at 35° C.
S. pyogenes ATCC19615 = experiment: as above; assay type: cell-based, Streptococcus pyogenes; conditions: mean of three, in µg/mL
S. pneumoniae C718 = experiment: as above; assay type: cell-based, Streptococcus pneumoniae; conditions: mean of three
S. pneumoniae C719 = experiment: as above; assay type: cell-based, Streptococcus pneumoniae; conditions: mean of three, in µg/mL
BMKC = experiment: Anti-cancer assay, MTT, LD50; assay type: cell-based; conditions: BMKC cloned melanoma line, 24 hours with peptide
Excerpt: (§1) Numbers are LD50 values (μg/mL).

H1299 = experiment: Anti-cancer assay, MTT, LD50; assay type: cell-based; conditions: 24 hours with peptide, lung large cell carcinoma
Excerpt: as §1

HeLaS3 = experiment: Anti-cancer assay, MTT, LD50; assay type: cell-based; conditions: 24 hours with peptide, cervical carcinoma
Excerpt: as §1

MCF7 = experiment: Anti-cancer assay, MTT, LD50; assay type: cell-based; conditions: MCF7 breast adenocarcinoma line, MTT, 24 hours with peptide
Excerpt: as §1

PC3 = experiment: Anti-cancer assay, MTT, LD50; assay type: cell-based; conditions: 24 hours with peptide, prostate adenocarcinoma
Excerpt: as §1

in vitro [4] = assay type: cell-based, human; conditions: human, human red blood cells, pH 7, hemolytic assay, concentration at 50% hemolysis, 1 hour at 37° C.; read-out: LD50
P. aeruginosa H374 = assay type: cell-based, Pseudomonas aeruginosa; conditions: for MIC Cm-comb.: MIC of chloramphenicol with peptide at ¼ MIC; for MIC Nal-comb.: MIC of nalidixic acid with peptide at ¼ MIC; for FIC Index: 0.5 or less = synergy
Method in brief: (§2)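 Synergy against efflux-mutant strains: two-fold dilutions of nalidixic acid or chloramphenicol tested with peptide held at ¼ of its MIC.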

P. aeruginosa H774 = assay type: cell-based, Pseudomonas aeruginosa; conditions: P. aeruginosa H744; nalidixic acid + peptide at ¼ MIC; 0.5 or less = synergy
Method in brief: as §2

P. aeruginosa = assay type: cell-based, Pseudomonas aeruginosa; conditions: P. aeruginosa H744; MIC of nalidixic acid with peptide at ¼ MIC
Method in brief: as §2

WI38 = conditions: MTT, 24 hours with peptide; normal fibroblast line
in vitro [5] = conditions: human, WI38 normal lung fibroblast cells, LD50 WI38, WI38 normal lung fibroblast line, MTT, 24 hours with peptide
SW480 = experiment: Anti-cancer assay, MTT, LD50; assay type: cell-based; conditions: SW480 colon adenocarcinoma line, 24 hours with peptide
Excerpt: as §1

[6] = chloramphenicol + peptide at ¼ MIC
[7] = nalidixic acid + peptide at ¼ MIC, FIC=0.25+MIC comb/MIC alone

Row | Molecule | paerug9027 (MIC) [1] [µg/mL] | staph6538 (MIC) [2] [µg/mL] | yeast (MIC or MFC) [3] [µg/mL] | S. aureus (MRSA) MIC (S. aureus (MRSA)) [µg/mL] | S. epidermidis C621 MIC (S. epidermidis C621) [µg/mL] | S. pyogenes M76 MIC (S. pyogenes M76) [µg/mL] | S. pyogenes MIC (S. pyogenes ATCC19615) | S. pneumoniae MIC (S. pneumoniae C718) [µg/mL] | S. pneumoniae MIC (S. pneumoniae C719) | LD50 BMKC (BMKC) [µg/mL] | H1299 LD50 (H1299) [µg/mL] | HeLaS3 LD50 (HeLaS3) [µg/mL] | LD50 MCF7 (MCF7) [µg/mL] | PC3 LD50 (PC3) [µg/mL] | HC50 at 1 h (in vitro [4]) [µg/mL] | MIC Cm-comb. (P. aeruginosa H374) [µg/mL] | MIC Nal-comb. (P. aeruginosa H374) [µg/mL] | WI38 LD50 (WI38) [µg/mL] | CC50 at 24 h (in vitro [5]) [µg/mL] | LD50 SW480 (SW480) [µg/mL] | other results
1 | FAKLLAKLAKKAL-NH2 [P54, FAKLLAKLAKKAL-NH2] | 50 | 5 | 50 | 16 | 8 | 8 | 8 | 64 | 64 | 90 | 80 | 190 | 60 | 90 | 250 | 16 | 5000 | 97 | 97 | – | FIC Index (P. aeruginosa H374; [6]): 1.25; FIC Index (P. aeruginosa H374; [7]): 1.25; FIC Index (P. aeruginosa H774): 1.25; MIC Nal-comb. (P. aeruginosa): 624 µg/mL
2 | FAKLLAKLAKKL-NH2 [P49] | 200 | 10 | 50 | 64 | 8 | 8 | 8 | 64 | 32 | 115 | 140 | – | 40 | 77 | 225 | 8 | 2500 | 135 | 135 | 100 | FIC Index (P. aeruginosa H374; [6]): 0.75; FIC Index (P. aeruginosa H374; [7]): 0.75; FIC Index (P. aeruginosa H774): 1.25; MIC Nal-comb. (P. aeruginosa): 624 µg/mL
3 | FALALKALKKALKKLKKALKKAL-NH2 [P2, reference compound] | 100 | 25 | 25 | 32 | 8 | 4 | 8 | 128 | 32 | 128 | 140 | 50 | 23 | 44 | 10 | – | – | 66 | 66 | 46 | –
4 | CC[C@H](C)[C@H](N)C(=O)N[C@@H](CC(C)C)C(=O)N1CCC[C@H]1C(=O)N[C@@H](Cc1c[nH]c2ccccc12)C(=O)N[C@@H](CCCCN)C(=O)N[C@@H](Cc1c[nH]c2ccccc12)C(=O)N1CCC[C@H]1C(=O)N[C@@H](Cc1c[nH]c2ccccc12)C(=O)N[C@@H](Cc1c[nH]c2ccccc12)C(=O)N1CCC[C@H]1C(=O)N[C@@H](Cc1c[nH]c2ccccc12)C(=O)N[C@@H](CCCNC(=N)N)C(=O)N[C@@H](CCCNC(=N)N)C(N)=O [P63, reference compound] | – | – | – | 32 | 16 | 8 | 8 | 128 | 16 | 200 | 270 | 345 | 64 | 290 | 375 | – | – | – | – | 345 | –
